Paper PMC5306082, “Physiologically based kinetic modeling of the bioactivation of myristicin” (Archives of Toxicology, 2016)

Legend:
[1] = Oxidation of 1′-hydroxymyristicin to 1′-oxomyristicin, human liver microsomes; format: in vitro ADME; details: human vs rat
Experimental: The kinetic constants for the enzymatic conversion of 1′-hydroxymyristicin to 1′-oxomyristicin were determined using incubation mixtures containing (final concentrations) 3 mM NAD^+, 2 mM GSH, and 1 mg/ml rat or human liver microsomes in 0.2 M Tris–HCl (pH 7.4). GSH was added to the incubation mixtures to trap the reactive 1′-oxo metabolite formed after oxidation of 1′-hydroxymyristicin. The level of GSH in the incubations was optimized in a previous study to obtain maximum scavenging of 1′-oxoestragole (Punt et al. [2009]). To this end, incubations were performed in the presence of increasing concentrations of GSH, ranging from 2 to 10 mM. […] Kinetic constants for this reaction in rat and human liver were derived by performing incubations with NAD^+ as a cofactor, given that in rat and human liver, NAD^+ is mainly present in an oxidized form with levels of NAD^+ being much higher than those of NADH. In a previous study, it was shown that the highest level of 1′-hydroxy alkenylbenzene oxidation occurs in incubations with microsomes in the presence of NAD^+ as cofactor. […] The enzyme responsible for the oxidation may be 17β-hydroxysteroid dehydrogenase type 2 (17β-HSD2) (Punt et al. [2010]). Prior to the addition of 1′-hydroxymyristicin at final concentrations ranging between 10 and 4000 μM to the incubation mixture from 100 times concentrated stock solutions in DMSO, samples were pre-incubated for 1 min at 37 °C. Reactions were terminated after 10 min of incubation at 37 °C by adding 25 μl (0.25 times the incubation volume) of ice-cold ACN. The formation of the GSH conjugate of 1′-oxomyristicin (GS-1′-oxomyristicin) was linear with time and microsomal protein concentration under the experimental conditions used. Blank incubations were performed without the cofactor NAD^+. Incubations were performed in triplicate. All samples were centrifuged for 5 min at 13,000×g, and the supernatant was stored at −20 °C until UPLC analysis.
Quantification of GS-1′-oxomyristicin was based on a calibration curve of the GSH adduct of the synthesized 1′-oxymyristicin made as previously described (van den Berg et al. [2012]; Punt et al. [2009]; Martati et al. [2011]; Al-Subeihi et al. [2011]). In short, a 60 μM concentration of the synthetic standard of 1′-oxomyristicin, dissolved in ACN, was incubated with different concentrations of GSH (i.e., 0–20 μM) in 0.2 M Tris–HCl (pH 7.4) for 6 h at 37 °C, resulting in full conversion of the GSH to GS-1′-oxymyristicin. Quantification was done by comparing the peak areas of the formed GS-1′-oxo metabolite in the incubation mixtures with peak areas of the GS-1′-oxymyristicin calibration curve thus obtained at a wavelength of 212 nm. The gradient for analysis of the metabolite consisted of a mixture of ACN and ultrapure water containing 0.1 % (v/v) TFA. The flow rate was 0.6 ml/min, The gradient started with 10 % ACN, increased to 30 % ACN over 2.5 min, after which ACN was increased to 80 % over 0.5 min, kept at 80 % for 0.5 min, followed by a decrease to 10 % over 0.5 min, and finally kept at 10 % for 0.5 min.

[2] = Sulfonation of 1′-hydroxymyristicin, male rat liver S9; format: in vitro ADME; details: S9 protein yield 143 mg/g liver
Experimental: The formation of 1′-sulfoxymyristicin was determined using incubations containing male rat liver Sprague–Dawley or pooled gender human liver S9 proteins, PAPS as a cofactor, and GSH, which acts as a scavenger of the reactive carbocation formed due to the unstable nature of the 1′-sulfoxy metabolite in an aqueous environment (van den Berg et al. [2012]; Martati et al. [2011]; Al-Subeihi et al. [2011]). Incubation mixtures containing (final concentrations) 10 mM of GSH, 0.2 mM of PAPS, and 3 mg/ml of S9 proteins in 0.1 M potassium phosphate (pH 8.2) were pre-incubated for 1 min at 37 °C. After the pre-incubation, 1′-hydroxymyristicin dissolved in DMSO was added in final concentrations ranging between 10 and 6000 μM while keeping the final content of DMSO at 1 % (v/v). The reaction was terminated after 360 min of incubation by adding 25 μl (0.25 times the incubation volume) of ice-cold ACN. The formation of the GSH conjugate of 1′-sulfoxymyristicin was linear with time and S9 protein concentrations under the experimental conditions used. Blank incubations were performed in the absence of PAPS. Incubations were performed in triplicate. All samples were centrifuged for 5 min at 16,000×g, and the supernatant was stored at −20 °C until ultra-performance liquid chromatography (UPLC) analysis.
Quantification of 1′-sulfoxymyristicin was done using UPLC analysis as described for the estimation of 1′-sulfoxysafrole (Martati et al. [2011]). […] The gradient for analysis of the metabolite consisted of a mixture of ACN and ultrapure water containing 0.1 % (v/v) TFA. The flow rate was 0.6 ml/min, starting at 0 % ACN and increasing the percentage of ACN to 20 % over 0.2 min, followed by an increase to 30 % ACN over 4.3 min, then increasing to 100 % over 0.3 min, and keeping it at 100 % for 0.2 min, and finally decreasing to 0 % over 0.2 min and keeping it at 0 % for 0.8 min. Separation and purification of the GSH adduct of 1′-sulfoxymyristicin was performed by collecting the peak of the metabolite from the UPLC column. […]

## C=CC(O)c1cc(OC)c2c(c1)OCO2 (centres unmarked) [1′-Hydroxymyristicin, 1′-hydroxymyristicin]
[1]
  oxidation, times more efficient in human liver than in male rat liver: 1.2 times
[2]
  k Scaled: 0.15 ml/hr/g tissue
